IC50 data for 25 compounds are collected here from patent US20140255392A1 (BAYER INTELLECTUAL PROPERTY GMBH, priority 2011, published 2014).

The target of the test is T1, human kinase Mps-1 (Homo sapiens, UniProt P33981).
T1 construct: N-terminally GST-tagged human full length recombinant Mps-1 kinase; GST (N); purchased Invitrogen, Karslruhe, Germany PV4071
T1 sequence (P33981 1-857): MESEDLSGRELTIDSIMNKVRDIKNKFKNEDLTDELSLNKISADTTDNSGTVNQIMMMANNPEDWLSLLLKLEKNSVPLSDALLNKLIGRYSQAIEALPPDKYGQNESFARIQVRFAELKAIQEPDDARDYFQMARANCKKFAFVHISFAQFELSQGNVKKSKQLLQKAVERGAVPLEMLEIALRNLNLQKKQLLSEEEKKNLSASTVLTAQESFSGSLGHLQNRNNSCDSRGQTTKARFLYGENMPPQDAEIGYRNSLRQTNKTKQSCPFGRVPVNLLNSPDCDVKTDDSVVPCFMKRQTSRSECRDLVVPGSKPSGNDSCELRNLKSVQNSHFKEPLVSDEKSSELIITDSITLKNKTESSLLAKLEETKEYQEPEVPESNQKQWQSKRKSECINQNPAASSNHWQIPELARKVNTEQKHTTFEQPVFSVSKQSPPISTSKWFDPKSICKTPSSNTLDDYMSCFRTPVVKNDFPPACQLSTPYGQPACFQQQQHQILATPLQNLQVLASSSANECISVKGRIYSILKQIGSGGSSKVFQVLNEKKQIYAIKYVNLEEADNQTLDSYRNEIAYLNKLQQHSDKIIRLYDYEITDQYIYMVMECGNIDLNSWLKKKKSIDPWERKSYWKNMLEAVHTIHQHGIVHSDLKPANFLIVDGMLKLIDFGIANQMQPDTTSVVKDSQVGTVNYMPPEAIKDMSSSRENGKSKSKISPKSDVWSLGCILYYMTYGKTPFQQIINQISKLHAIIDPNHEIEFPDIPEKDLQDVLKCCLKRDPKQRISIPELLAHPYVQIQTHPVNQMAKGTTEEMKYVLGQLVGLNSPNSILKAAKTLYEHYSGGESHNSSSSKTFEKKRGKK
As to the kind of experiment: Mps-1 kinase assay (TR-FRET). It counts as biochemical. Conditions: N-terminally GST-tagged human full length recombinant Mps-1; 10 μM ATP; 1 μM peptide substrate; 60 min at 22° C. The method in brief:
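TR-FRET signal between a Europium anti-phospho-Ser/Thr antibody and streptavidin-XLent reported phosphorylation of a biotinylated peptide by GST-tagged full-length Mps-1. Enzyme was near 1 nM final, chosen per lot for linearity.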

As to `C#Cc1cc(NCCC(F)(F)F)c2ncc(-c3ccc(C(=O)NC4(C)CC4)c(C)c3)n2c1` [Example 17, 4-{6-ethynyl-8-[(3,3,3-trifluoropropyl)amino]imidazo[1,2-a]pyridin-3-yl}-2-methyl-N-(1-methylcyclopropyl)benzamide], the IC50 stood at 108 nM.

Consider `CNC(=O)c1ccc(-c2cnc3c(NCCC(F)(F)F)cc(Oc4ccc(O)c(F)c4)cn23)cc1C` [Example 130, 4-{6-(3-Fluoro-4-hydroxyphenoxy)-8-[(3,3,3-trifluoropropyl)amino]imidazo[1,2-a]pyridin-3-yl}-N,2-dimethylbenzamide], for which the IC50 came to 0.9 nM. On to `Cc1cc(-c2cnc3c(NCCC(F)(F)F)cc(Oc4cccc(O)c4)cn23)ccc1C(=O)NC1CC1` [Example 136, N-cyclopropyl-4-{6-(3-hydroxyphenoxy)-8-[(3,3,3-trifluoropropyl)amino]imidazo[1,2-a]pyridin-3-yl}-2-methylbenzamide], for which the IC50 turned out to be 0.5 nM. `COCCNc1cc(Oc2ccccc2C)cn2c(-c3ccc(C(=O)NC4CC4)c(C)c3)cnc12` [Example 170]: the IC50 is 176 nM. Regarding `CCNC(=O)c1ccc(-c2cnc3c(NCCC(F)(F)F)cc(Oc4cccc(OC(F)(F)F)c4)cn23)cc1C` [Example 77, N-ethyl-2-methyl-4-{6-[3-(trifluoromethoxy)phenoxy]-8-[(3,3,3-trifluoropropyl)amino]imidazo[1,2-a]pyridin-3-yl}benzamide], the IC50 is 51 nM. As for `COCCNc1cc(Oc2ccc(F)c(F)c2)cn2c(-c3ccc(C(=O)NC4CC4)c(C)c3)cnc12` [Example 171, N-cyclopropyl-4-{6-(3,4-difluorophenoxy)-8-[(2-methoxyethyl)amino]imidazo[1,2-a]pyridin-3-yl}-2-methylbenzamide], the figure is 115 nM; as for `Cc1cc(-c2cnc3c(NCCC(F)(F)F)cc(-c4ccc(C(=O)N[C@H]5C[C@@H]5F)c(C)c4)cn23)ccc1C(=O)NC1CC1` (relative stereo) [Example 152, 4-{3-[4-(cyclopropylcarbamoyl)-3-methylphenyl]-8-[(3,3,3-trifluoropropyl)amino]imidazo[1,2-a]pyridin-6-yl}-N-[rel-(1S,2S)-2-fluorocyclopropyl]-2-methylbenzamide], 0.8 nM; as for `C/C=C/c1cc(NCCC(F)(F)F)c2ncc(-c3ccc(C(=O)NC)c(C)c3)n2c1` [Example 112, N,2-dimethyl-4-{6-[(1E)-prop-1-en-1-yl]-8-[(3,3,3-trifluoropropyl)amino]imidazo[1,2-a]pyridin-3-yl}benzamide], 21.8 nM. In the case of `C=Cc1cc(NCCC(F)(F)F)c2ncc(-c3ccc(C(=O)NC4CC4)c(C)c3)n2c1` [Example 92, N-cyclopropyl-2-methyl-4-{8-[(3,3,3-trifluoropropyl)amino]-6-vinylimidazo[1,2-a]pyridin-3-yl}benzamide], the IC50 was found to be 13.2 nM. As for `C=Cc1cc(NCCC(F)(F)F)c2ncc(-c3ccc(C(=O)NC4(C)CC4)c(C)c3)n2c1` [Example 95, 2-Methyl-N-(1-methylcyclopropyl)-4-{8-[(3,3,3-trifluoropropyl)amino]-6-vinylimidazo[1,2-a]pyridin-3-yl}benzamide], the figure is 140 nM; as for `Cc1cc(-c2cnc3c(NCCC(F)(F)F)cc(Oc4ccc(OC(F)(F)F)cc4)cn23)ccc1C(=O)NC1CC1` [Example 64, N-cyclopropyl-2-methyl-4-{6-[4-(trifluoromethoxy)phenoxy]-8-[(3,3,3-trifluoropropyl)amino]imidazo[1,2-a]pyridin-3-yl}benzamide], 8.6 nM. As for `CNC(=O)c1ccc(-c2cnc3c(NCCC(F)(F)F)cc(Oc4ccc(OC)c(F)c4)cn23)cc1C` [Example 106, 4-{6-(3-Fluoro-4-methoxyphenoxy)-8-[(3,3,3-trifluoropropyl)amino]imidazo[1,2-a]pyridin-3-yl}-N,2-dimethylbenzamide], the figure is 1.6 nM; as for `CCNC(=O)c1ccc(-c2cnc3c(NCCC(F)(F)F)cc(Oc4cccc(OC)c4)cn23)cc1C` [Example 56, N-ethyl-4-{6-(3-methoxyphenoxy)-8-[(3,3,3-trifluoropropyl)amino]imidazo[1,2-a]pyridin-3-yl}-2-methylbenzamide], 7.8 nM. For the compound `CNC(=O)c1ccc(-c2cc(NCCC(F)(F)F)c3ncc(-c4ccc(C(=O)NC5CC5)c(C)c4)n3c2)cc1C` [Example 147, 4-{3-[4-(cyclopropylcarbamoyl)-3-methylphenyl]-8-[(3,3,3-trifluoropropyl)amino]imidazo[1,2-a]pyridin-6-yl}-N,2-dimethylbenzamide], the IC50 is 0.5 nM. With `CCNC(=O)c1ccc(-c2cnc3c(NCCC(F)(F)F)cc(CCCO)cn23)cc1C` [Example 127, N-ethyl-4-{6-(3-hydroxypropyl)-8-[(3,3,3-trifluoropropyl)amino]imidazo[1,2-a]pyridin-3-yl}-2-methylbenzamide], the IC50 is 62.5 nM. Turning to `CCNC(=O)c1ccc(-c2cnc3c(NCCC(F)(F)F)cc(Oc4ccc(O)c(F)c4)cn23)cc1C` [Example 131, N-ethyl-4-{6-(3-fluoro-4-hydroxyphenoxy)-8-[(3,3,3-trifluoropropyl)amino]imidazo[1,2-a]pyridin-3-yl}-2-methylbenzamide], the IC50 was 1.4 nM. Turning to `CNC(=O)c1ccc(-c2cnc3c(NCCC(F)(F)F)cc(-c4ccc(C(=O)NC5CC5)c(C)c4)cn23)cc1C` [Example 158, 4-{6-[4-(cyclopropylcarbamoyl)-3-methylphenyl]-8-[(3,3,3-trifluoropropyl)amino]imidazo[1,2-a]pyridin-3-yl}-N,2-dimethylbenzamide], the IC50 amounted to 6.2 nM.

Turning to `Cc1cc(-c2cnc3c(NCCC(F)(F)F)cc(-c4ccccc4O)cn23)ccc1C(=O)NC1CC1` [Example 132, N-cyclopropyl-4-{6-(2-hydroxyphenyl)-8-[(3,3,3-trifluoropropyl)amino]imidazo[1,2-a]pyridin-3-yl}-2-methylbenzamide], the IC50 is 1.1 nM.

As to `Cc1cc(-c2cnc3c(NCCC(F)(F)F)cc(Oc4cccc(F)c4F)cn23)ccc1C(=O)NC1(C)CC1` [Example 71, 4-{6-(2,3-Difluorophenoxy)-8-[(3,3,3-trifluoropropyl)amino]imidazo[1,2-a]pyridin-3-yl}-2-methyl-N-(1-methylcyclopropyl)benzamide], the IC50 is 1.8 nM. As to `CNC(=O)c1ccc(-c2cnc3c(NCCC(F)(F)F)cc(Oc4ccc(OC(F)(F)F)cc4)cn23)cc1C` [Example 67, N,2-dimethyl-4-{6-[4-(trifluoromethoxy)phenoxy]-8-[(3,3,3-trifluoropropyl)amino]imidazo[1,2-a]pyridin-3-yl}benzamide], the IC50 is 72.8 nM. On to `CCNC(=O)c1ccc(-c2cnc3c(NCCC(F)(F)F)cc(Oc4cccc(O)c4)cn23)cc1C` [Example 138, N-ethyl-4-{6-(3-hydroxyphenoxy)-8-[(3,3,3-trifluoropropyl)amino]imidazo[1,2-a]pyridin-3-yl}-2-methylbenzamide], for which the IC50 came to 1.3 nM. Take `CCNC(=O)c1ccc(-c2cnc3c(NCC4CCOCC4)cc(Oc4ccc(OC)c(F)c4)cn23)cc1C` [Example 122, N-ethyl-4-{6-(3-fluoro-4-methoxyphenoxy)-8-[(tetrahydro-2H-pyran-4-ylmethyl)amino]imidazo[1,2-a]pyridin-3-yl}-2-methylbenzamide]: the IC50 is 1.9 nM. For `COc1ccc(Oc2cc(NCCC(F)(F)F)c3ncc(-c4ccc(C(=O)N[C@H]5C[C@@H]5C)c(C)c4)n3c2)cc1F` (relative stereo) [Example 125, 4-{6-(3-fluoro-4-methoxyphenoxy)-8-[(3,3,3-trifluoropropyl)amino]imidazo[1,2-a]pyridin-3-yl}-2-methyl-N-[rel-(1S,2S)-2-methylcyclopropyl]benzamide], the IC50 was 2 nM. Take `Cc1cc(-c2cnc3c(NCCC(F)(F)F)cc(Oc4cccc(F)c4)cn23)ccc1C(=O)NC1CC1F` (single isomer, unassigned) [Example 12 (A or ent.-A), N-{[(1S,2S) or (1R,2R)]-2-fluorocyclopropyl}-4-{6-(3-fluorophenoxy)-8-[(3,3,3-trifluoropropyl)amino]imidazo[1,2-a]pyridin-3-yl}-2-methylbenzamide]: the IC50 stood at 0.8 nM. On to `CNC(=O)c1ccc(-c2cnc3c(NCCC(F)(F)F)cc(Oc4ccccc4)cn23)cc1C` [Example 59, N,2-dimethyl-4-{6-phenoxy-8-[(3,3,3-trifluoropropyl)amino]imidazo[1,2-a]pyridin-3-yl}benzamide], for which the IC50 was determined as 1.5 nM.

Usually IC50 stands for the concentration at which inhibition is half-maximal.
